Consider 9 compounds from PubChem BioAssay (NCI).

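Tested at 5 concentrations; 48 h exposure; 96-well plates; endpoints linearly interpolated, else capped at highest concentration. Here, GI50 denotes the concentration required for 50% inhibition of growth. At the TGI there is no net growth.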

Among the test systems are UO-31 renal; NCI-H23 lung; OVCAR-3 ovarian; MDA-MB-435; SNB-19 CNS; RPMI-8226 leukemia; EKVX NSCLC; CAKI-1 renal; TK-10 renal; K-562 leukemia.
Holding throughout (experiment): NCI tumour cell line growth inhibition, 48 h

Take `Cc1nc(C(=O)OCc2ccccc2)cc(OCc2ccccc2)c1C`: the GI50 in the assay on UO-31 renal is 18.3 µM; in the assay on NCI-H23 lung, 15.3 µM; in the assay on OVCAR-3 ovarian it was 11.4 µM; with MDA-MB-435, 18.5 µM; in the assay with SNB-19 CNS, 27.8 µM; in the assay on RPMI-8226 leukemia, 20.9 µM. Besides, the GI50 was 19.3 µM in the assay with EKVX NSCLC, 32.6 µM in the assay on CAKI-1 renal, 50.4 µM in the assay with TK-10 renal and 8.8 µM in the assay with K-562 leukemia. Moreover, the TGI in the assay with UO-31 renal is 39 µM; in the assay with NCI-H23 lung, 36.8 µM; in the assay on OVCAR-3 ovarian, 26.2 µM; with MDA-MB-435 it was above 54.6 µM; with SNB-19 CNS, above 82.8 µM; with RPMI-8226 leukemia, above 72.7 µM. For the same compound, the TGI in the assay on EKVX NSCLC is 52.7 µM; in the assay on CAKI-1 renal, above 100 µM; in the assay on TK-10 renal, above 100 µM; with K-562 leukemia it was 36.8 µM.

`O=C(OCC1=CC(=O)c2ccccc2C1=O)c1ccccc1`: the GI50 in the assay with UO-31 renal was 15.6 µM; with NCI-H23 lung it was 6.28 µM; in the assay with OVCAR-3 ovarian it was 3.47 µM; in the assay on MDA-MB-435, 1.98 µM; in the assay on SNB-19 CNS, 10.3 µM; with RPMI-8226 leukemia it was 21.3 µM. For the same compound, the GI50 with EKVX NSCLC is 12.9 µM; with CAKI-1 renal, 10.4 µM; in the assay on TK-10 renal, 15.9 µM; in the assay with K-562 leukemia it was 9.47 µM. Moreover, the TGI in the assay on UO-31 renal is 29.1 µM; in the assay on NCI-H23 lung, 24.8 µM; with OVCAR-3 ovarian, 18.7 µM; in the assay with MDA-MB-435, 3.66 µM; in the assay on SNB-19 CNS it was 22.4 µM; in the assay on RPMI-8226 leukemia it was above 100 µM. Moreover, the TGI was 27.5 µM in the assay on EKVX NSCLC, 22.8 µM in the assay on CAKI-1 renal, 29.6 µM in the assay on TK-10 renal and 34.5 µM in the assay on K-562 leukemia.

Turning to `COc1ccc2c(CN3CCCC[C@H]3O)cc3cc4c(cc3c2c1)OCO4`, the GI50 in the assay with UO-31 renal was 0.31 µM; in the assay on NCI-H23 lung, 0.445 µM; with OVCAR-3 ovarian, 0.409 µM; in the assay on MDA-MB-435, 0.422 µM; in the assay with SNB-19 CNS it was 0.445 µM; in the assay with RPMI-8226 leukemia, 0.298 µM. Besides, the GI50 in the assay on EKVX NSCLC is 0.817 µM; in the assay with CAKI-1 renal it was 0.518 µM; in the assay on TK-10 renal, 0.702 µM; in the assay on K-562 leukemia it was 0.364 µM. Further, the TGI stood at 5.67 µM in the assay on UO-31 renal; 1.82 µM in the assay with NCI-H23 lung; 3.4 µM in the assay on OVCAR-3 ovarian; 1.62 µM in the assay on MDA-MB-435; 7.45 µM in the assay on SNB-19 CNS; 1.32 µM in the assay on RPMI-8226 leukemia. In addition, the TGI with EKVX NSCLC is 9.44 µM; in the assay with CAKI-1 renal, 5.66 µM; with TK-10 renal, 6.97 µM; in the assay with K-562 leukemia, 4.35 µM.

For the compound `CN(Cc1cnc2nc(N)nc(N)c2n1)c1c(Cl)cc(C(=O)NC(CCC(=O)O)C(=O)O)cc1Cl` (centres undefined), the GI50 was below 0.01 µM in the assay with UO-31 renal; 0.0277 µM with NCI-H23 lung; 0.0685 µM in the assay on OVCAR-3 ovarian; below 0.01 µM in the assay with MDA-MB-435; 0.0395 µM with SNB-19 CNS; below 0.01 µM in the assay on RPMI-8226 leukemia. In addition, the GI50 in the assay on CAKI-1 renal is below 0.01 µM; in the assay with TK-10 renal, 1.88 µM; in the assay on K-562 leukemia, below 0.01 µM. Besides, the TGI in the assay with UO-31 renal, in the assay with NCI-H23 lung, with OVCAR-3 ovarian, with MDA-MB-435, in the assay with SNB-19 CNS and with RPMI-8226 leukemia was above 100 µM each time. Besides, the TGI in the assay with EKVX NSCLC is above 100 µM; in the assay with CAKI-1 renal, 0.0242 µM; with TK-10 renal, above 100 µM; with K-562 leukemia, above 100 µM.

For the compound `CC(=O)/C(=N\N=C(N)N)c1ccccc1`, the TGI in the assay on UO-31 renal, in the assay on NCI-H23 lung, in the assay on OVCAR-3 ovarian, in the assay on MDA-MB-435, with SNB-19 CNS and in the assay with RPMI-8226 leukemia was above 100 µM in each case. Further, the TGI in the assay on EKVX NSCLC, in the assay with CAKI-1 renal, with TK-10 renal and in the assay on K-562 leukemia was above 100 µM in each case.

Regarding `O=S1(=O)CCC2=CC(C(F)(F)F)=CC(C(F)(F)F)=CN21`, the TGI came to 2.05 µM with UO-31 renal; 3.37 µM in the assay on NCI-H23 lung; 3.14 µM in the assay on OVCAR-3 ovarian; 4.77 µM in the assay with MDA-MB-435; 6.08 µM in the assay on SNB-19 CNS; 2.05 µM with RPMI-8226 leukemia. The TGI with EKVX NSCLC is 9.38 µM; in the assay with CAKI-1 renal it was 2.03 µM; with TK-10 renal, 2.13 µM; with K-562 leukemia it was 6.61 µM.

As to `C=C(CN1CCN(c2ccccn2)CC1)c1ccc(C(=O)Nc2ccccc2N)cc1`, the GI50 in the assay on UO-31 renal was 1.8 µM; in the assay with NCI-H23 lung, 0.939 µM; with OVCAR-3 ovarian, 1.25 µM; with MDA-MB-435, 0.522 µM; in the assay on SNB-19 CNS, 4.87 µM; in the assay on RPMI-8226 leukemia, 1.6 µM. The GI50 with EKVX NSCLC was 5.33 µM; in the assay with CAKI-1 renal, 1.19 µM; with TK-10 renal it was 1.85 µM; with K-562 leukemia, 0.956 µM. The TGI is 7.57 µM with UO-31 renal; 2.44 µM in the assay with NCI-H23 lung; 4.39 µM in the assay with OVCAR-3 ovarian; 1.4 µM with MDA-MB-435; 29.7 µM with SNB-19 CNS; above 50 µM with RPMI-8226 leukemia. For the same compound, the TGI in the assay with EKVX NSCLC was above 50 µM; in the assay with CAKI-1 renal, 5.03 µM; in the assay with TK-10 renal, 8.23 µM; in the assay on K-562 leukemia it was above 50 µM.

Regarding `OC(Cc1cccc2ccccc12)CN1CCC(c2ccccc2)CC1` (centres undefined), the TGI in the assay on UO-31 renal worked out at 0.176 µM; in the assay on NCI-H23 lung, 30.8 µM; with OVCAR-3 ovarian, 30.5 µM; in the assay on MDA-MB-435, 28.3 µM; with SNB-19 CNS it was 26.3 µM; in the assay on RPMI-8226 leukemia, 31.8 µM. The TGI stood at 27.1 µM in the assay on EKVX NSCLC, 24.5 µM in the assay with CAKI-1 renal, 28.1 µM in the assay with TK-10 renal and 38.1 µM with K-562 leukemia.

On to `COc1ccc(C(=O)Cn2c(C(=O)c3ccc(Cl)cc3)nc(-c3ccccc3)c2-c2ccccc2)cc1`, for which the GI50 is above 100 µM in the assay with UO-31 renal; above 100 µM with NCI-H23 lung; above 100 µM in the assay with OVCAR-3 ovarian; above 100 µM with MDA-MB-435; 78.3 µM with SNB-19 CNS; above 100 µM with RPMI-8226 leukemia. The GI50 was above 100 µM in the assay on EKVX NSCLC, 31.2 µM with CAKI-1 renal, 46.5 µM in the assay on TK-10 renal and above 100 µM in the assay with K-562 leukemia. For the same compound, the TGI in the assay on UO-31 renal, in the assay with NCI-H23 lung, in the assay on OVCAR-3 ovarian, in the assay on MDA-MB-435, in the assay with SNB-19 CNS and with RPMI-8226 leukemia was above 100 µM in each case. Moreover, the TGI in the assay with EKVX NSCLC, in the assay on CAKI-1 renal, with TK-10 renal and with K-562 leukemia was above 100 µM in each case.
